Results: paper PMC6687188, “Novel lactate dehydrogenase inhibitors with in vivo efficacy against Cryptosporidium parvum” (PLoS Pathogens, 2019)
Like-named read-outs stand apart in the source and are kept apart here.

Target: recombinant CpLDH protein (Cryptosporidium parvum, UniProt Q9GT92, F198L/K295E/R251K)

Row | SMILES | MEAN CpLDH INHIBITION (%) | MEAN CpLDH INHIBITION (%) (20 μM compound, 10 mM pyruvate, 1 mM NADH, values below 0 = augmenters)
1 | Cc1c(Cl)cccc1NC(=O)/C=C/c1ccccc1 [NSC191392] | -18.93 | 
2 | Cc1cccc(Cl)c1NC(=O)/C=C/c1ccccc1 [NSC191393] | -10.83 | 
3 | C[CH2][Ge]1([CH2]C)[CH2]CC2(CCN(CCCN(C)C)C2)C[CH2]1 [NSC192965] | -81.94 | 
4 | CC[C@@]1(O)C[C@H](O)c2c(O)c3c(c(O)c2[C@H]1C(=O)OC)C(=O)c1cccc(O)c1C3=O [NSC196524] | -30.88 | 
5 | O=C1OC(c2ccco2)=N/C1=C\c1ccc(Cl)c(Cl)c1 [NSC202000] | -23.71 | 
6 | COc1cc2c(c3oc4cccc(O)c4c(=O)c13)[C@@H]1C=CO[C@@H]1O2 [NSC204985] | -20.51 | 
7 | CCOC(=O)C(C)NC(=O)N(C)C12CC3CC(CC(C3)C1)C2 (stereo not shown) [NSC208913] | -30.10 | 
8 | CCOC(=O)CNC(=O)NC12CC3CC(CC(C3)C1)C2 [NSC208914] | -37.53 | 
9 | COc1ccc(C2C=C(c3ccc4c(c3)OCO4)Oc3c2c(=O)oc2ccccc32)cc1OC (stereo not shown) [NSC211489] | -11.02 | 
10 | CC(C)c1oc(=O)cc2c1[C@@H](O)[C@H]1OC(=O)[C@@]3(C)[C@@H](O)[C@H]4O[C@H]4[C@@]2(C)[C@@H]13 [NSC211500] | -13.24 | 
11 | C[n+]1ccc(Nc2ccc(NC(=O)c3ccc(Nc4cc[n+](C)c5ccc([N+](=O)[O-])cc45)cc3[N+](=O)[O-])cc2)cc1.Cl [NSC218439] | -11.45 | 
12 | Cc1[nH]c(=O)[nH]c(=O)c1/C=C/C(=O)NC(CO)CC(C)C (stereo not shown) [NSC224117] | -0.81 | 
13 | CSCC(CO)NC(=O)/C=C/c1c(C)[nH]c(=O)[nH]c1=O (stereo not shown) [NSC233872] | -35.08 | 
14 | O=C(O)c1ccc(Nc2c3ccccc3nc3ccccc23)cc1.[Na+] [NSC235082] | -28.09 | 
15 | CO[C@H]1/C=C/O[C@@]2(C)Oc3c(C)c(O)c4c(c3C2=O)C(=O)C=C(NC(=O)/C(C)=C\C=C\[C@H](C)[C@H](OC=O)[C@@H](C)[C@@H](O)[C@@H](C)[C@H](OC(C)=O)[C@@H]1C)C4=O [NSC239375] | -42.34 | 
16 | Cc1cc(N(CC(C)Br)CC(C)Br)ccc1N=Nc1ccccc1C(=O)O (stereo not shown) [NSC240419] | -69.26 | 
17 | CCCC[S+]([O-])CC(CO)NC(=O)/C=C/c1c(C)[nH]c(=O)[nH]c1=O (stereo not shown) [NSC241509] | -30.83 | 
18 | COc1cc(O)c(Cc2ccccc2O)c(O)c1C(=O)CCc1ccccc1 [NSC241906] | -0.38 | 
19 | CC[C@@]1(O)C[C@H](O[C@H]2C[C@H](N(C)C)[C@H](O[C@H]3C[C@@H]4O[C@H]5CC(=O)[C@H](C)O[C@H]5O[C@@H]4[C@H](C)O3)[C@H](C)O2)c2c(cc3c(c2O)C(=O)c2c(O)ccc(O)c2C3=O)[C@H]1C(=O)OC [NSC243023] | -140.35 | 
20 | CCS(=O)(=O)Nc1ccc(Nc2c3ccccc3nc3ccccc23)c(OC)c1.CS(=O)(=O)O [NSC243928] | -32.64 | 
21 | CC(=O)OC[C@H]1O[C@@H](NC(=O)N(CCCl)N=O)[C@H](OC(C)=O)[C@@H](OC(C)=O)[C@@H]1OC(C)=O [NSC245432] | -45.30 | 
22 | CO[C@H]1/C=C\C=C(/C)C(=O)NC2=CC(=O)C(N)=C(C[C@@H](C)C[C@H](OC)[C@H](O)[C@@H](C)/C=C(\C)[C@@H]1OC(N)=O)C2=O [NSC255109] | -205.22 | 

Row | SMILES | MEAN CpLDH INHIBITION (%) | MEAN CpLDH INHIBITION (%) (20 μM compound, 10 mM pyruvate, 1 mM NADH, values below 0 = augmenters)
23 | CC(C)N.CC(C)N.[Cl-].[Cl-].[OH-].[OH-].[Pt] [NSC256927] | -46.96 | 
24 | COc1cccc2c1C(=O)c1c(O)c3c(c(O)c1C2=O)C[C@@](O)(C(C)=O)C[C@@H]3O[C@@H]1C[C@@H](N(C)C)[C@@H](O)[C@@H](C)O1 [NSC258812] | -2.78 | 
25 | COc1ccc(/C=C2\N=C(c3ccccc3)OC2=O)c(OCc2ccccc2)c1 [NSC262665] | -17.00 | 
26 | C[n+]1ccc(-c2cc[n+](C)cc2)cc1.[Cl-].[Cl-] [NSC263500] | -58.44 | 
27 | NC1=NCN([C@@H]2O[C@H](CO)[C@@H](O)[C@H]2O)C(=O)N1 [NSC264880] | -2.01 | 
28 | CC[C@@]1(O)C[C@H](O[C@H]2C[C@H](N(C)C)[C@H](O[C@H]3C[C@H](O)[C@H](O[C@H]4C[C@H](O)[C@H](O)[C@H](C)O4)[C@H](C)O3)[C@H](C)O2)c2c(cc3c(c2O)C(=O)c2c(O)ccc(O)c2C3=O)[C@H]1C(=O)OC [NSC265211] | -47.33 | 
29 | COC1C(C)OC(OC2CC(C)(O)Cc3cc4c(c(O)c32)C(=O)c2c(O)cc3c(c2C4=O)OC2OC3(C)C(O)C(N(C)C)C2O)C(OC)C1(C)OC (stereo not shown) [NSC265450] | -83.48 | 
30 | [Cl][Pt+2][Cl].[NH-]C1CCCCC1[NH-] (stereo not shown) [NSC265459] | -11.78 | 
31 | CCCCCCCCCCSCC(CO)NC(=O)/C=C/c1c(C)[nH]c(=O)[nH]c1=O (stereo not shown) [NSC265473] | -39.94 | 
32 | O=C1N[C@@H]2C(=C[C@H](O)[C@@H](O)[C@H]2O)c2cc3c(c(O)c21)OCO3 [NSC266535] | -18.25 | 
33 | CC(=O)O[C@@H]1C[C@H]2O[C@@H]3C=C(C)CC[C@]3(C)[C@]1(C)[C@]21CO1 [NSC267033] | -8.12 | 
34 | COc1ccc(S(=O)(=O)N/N=C/C(=O)O)cc1 [NSC267213] | -67.55 | 
35 | CC[C@@]1(O)C[C@H](O[C@H]2C[C@H](N(C)C)[C@H](O)[C@H](C)O2)c2c(cc3c(c2O)C(=O)c2c(O)ccc(O)c2C3=O)[C@H]1C(=O)OC [NSC267229] | -179.02 | 
36 | CCNC(=O)OCc1c(COC(=O)NCC)c(-c2ccc(Cl)c(Cl)c2)n2c1CCC2 [NSC267700] | -49.53 | 
37 | C=C(C)C(=O)OC1CCC2(C)C(CCC3C2CCC2(C)C(c4ccc(=O)oc4)CC4OC432)C1 (stereo not shown) [NSC267712] | -57.63 | 
38 | COc1cccc2c1C(=O)c1c(O)c3c(c(O)c1C2=O)C[C@@](O)(C(C)=O)C[C@@H]3OC1CC(N(Cc2ccccc2)Cc2ccccc2)C(O)C(C)O1.Cl (stereo partly shown) [NSC268242] | -40.28 | 
39 | CC(C)CCCCCCCCCCCCC(=O)NCC(=O)NC1C(C)OC(Nc2ncnc3nc[nH]c23)C(O)C1O (stereo not shown) [NSC268251] | -8.04 | 
40 | CC1=C[C@H]2O[C@@H]3[C@H](O)[C@@H](O)[C@](C)([C@@]2(CO)CC1)[C@]31CO1 [NSC269142] | -41.10 | 
41 | COC(C(=O)C(O)C(C)O)C1Cc2cc3cc(OC4CC(OC5CC(O)C(O)C(C)O5)C(O)C(C)O4)c(C)c(O)c3c(O)c2C(=O)C1OC1CC(OC2CC(OC3CC(O)C(OC)C(C)O3)C(O)C(C)O2)C(O)C(C)O1 (stereo not shown) [NSC269146] | -38.98 | 
42 | C[C@@H](N)C(=O)NC(CO)C(O)C(N)C=O.Cl (stereo partly shown) [NSC278619] | -43.32 | 
43 | Cc1cc(N(CCOS(C)(=O)=O)CCOS(C)(=O)=O)ccc1C=Nc1ccc(-c2csc(-c3ccccc3)n2)c(Cl)c1 [NSC281613] | -15.80 | 
44 | C=C1C(=O)OC2C1CC1OC2C(C)CCC/C(C)=C\CCC1(C)O (stereo not shown) [NSC282752] | -63.64 | 

Row | SMILES | MEAN CpLDH INHIBITION (%) | MEAN CpLDH INHIBITION (%) (20 μM compound, 10 mM pyruvate, 1 mM NADH, values below 0 = augmenters)
45 | CCCCCCCCCCCCCCCCCCOP(=O)([O-])OCC[N+](C)(C)C [NSC282880] | -0.05 | 
46 | CN(CO)c1nc(N(C)CO)nc(N(C)CO)n1 [NSC283162] | -65.77 | 
47 | C=C(NC(=O)C(=C)NC(=O)c1csc(C2=N[C@@H]3c4csc(n4)[C@H]4NC(=O)c5csc(n5)[C@H]([C@](C)(O)[C@@H](C)O)NC(=O)[C@H]5CSC(=N5)/C(=C/C)NC(=O)[C@H]([C@@H](C)O)NC(=O)c5csc(n5)[C@]3(CC2)NC(=O)[C@H](C)NC(=O)C(=C)NC(=O)C(=C)NC(=O)[C@H](C(C)C)N[C@@H]2C=Cc3c([C@H](C)O)cc(nc3[C@H]2O)C(=O)O[C@@H]4C)n1)C(N)=O [NSC285116] | -2.26 | 
48 | Oc1cccc2cccnc12 [NSC285166] |  | -48.97
49 | COc1cc2c(cc1O)N=CC1CCC(O)N1C2=O (stereo not shown) [NSC285223] | -56.39 | 
50 | CCN(CC)CCNC(=O)c1nn(-c2ccc(Cl)cc2)c2c1CCc1cc(OC)ccc1-2 [NSC288010] | -45.22 | 
51 | C[C@]12CC[C@H](OC(=O)Cc3ccc(N(CCCl)CCCl)cc3)C[C@@H]1CC[C@@H]1[C@@H]2CC[C@]2(C)NC(=O)CC[C@@H]12 [NSC290205] | -205.36 | 
52 | O=C1C2=Nc3ccccc3C(O)N2c2ccccc21 (stereo not shown) [NSC292147] | -13.84 | 
53 | CO[C@@H]1C[C@@H](C[C@H]2CC[C@H](C)[C@H]([C@@H](C)C(=O)[O-])O2)O[C@]2(O[C@](C)([C@H]3CC[C@@](C)([C@@H]4O[C@@H]([C@H]5O[C@@](O)(CO)[C@H](C)C[C@@H]5C)C[C@@H]4C)O3)C[C@H]2C)[C@@H]1C.[Na+] [NSC292567] | -134.14 | 
54 | C=C1C(=O)O[C@H]2/C=C(/CO)[C@H](OC(C)=O)C[C@H](O)/C(C)=C\[C@H](OC(=O)[C@@H](C)CC)[C@H]12 [NSC292663] | -63.04 | 
55 | CCN(CC)CCOC(=O)Cc1cccc2c(=O)cc(-c3ccccc3)oc12 [NSC293015] | -3.81 | 
56 | O=C1Oc2ccccc2C(=O)/C1=C1\C=C(c2ccccc2)SS1 [NSC293927] | -15.46 | 
57 | CC(C)C1=C(O)C2=C(C(=O)C1=O)[C@@]1(C)CCCC(C)(C)[C@@H]1C[C@H]2O [NSC294577] | -16.31 | 
58 | O=C1Nc2ccc(Br)cc2/C1=C/C(=O)c1ccccc1 [NSC294961] | -25.63 | 
59 | CC1(O)C=CC(=O)C=C1 [NSC295156] | -1.00 | 
60 | O=C1c2ccccc2C(=O)c2c(NCCNCCO)ccc(O)c21 [NSC299187] | -23.00 | 
61 | COc1cc2oc(=O)cc(C)c2cc1[N+](=O)[O-] [NSC299879] | -32.05 | 
62 | COc1ccc(-c2csc(=[N+]3CCCCC3)s2)cc1 [NSC302358] | 0.36 | 
63 | C=C1C(=O)C2=CC1CCC(=O)C1(C)CCC(OC(C)=O)C(C)(C)C1CC2O (stereo not shown) [NSC302979] | -1.17 | 
64 | CCC12C[N+]3([O-])CCc4c([nH]c5ccccc45)C(C(=O)OC)(c4cc5c(cc4OC)N(C)C4C(O)(C(=O)OC)C(OC(C)=O)C6(CC)C=CCN7CCC54C76)CC(C3)C1O2 (stereo not shown) [NSC304421] | -126.27 | 
